Test results published in patent publication US9493506B2 (Enanta Pharmaceuticals, Inc., priority 2010, dated 2016).

How the values were obtained:
[1] = tested on: HCV replicon with a D168E mutation in a 1a-H77 background; experiment: transient replicon assay, D168E mutation in 1a-H77 background; format: cell-based, hepatitis C virus (genotype 1a-H77); details: Hepatitis C virus, read-out: EC50 in a transient replicon assay with a D168E mutation in a 1a-H77 background
Procedure, shortened: (§1)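 Transient transfection of mutant replicon RNA (1a-H77 with NS2–NS5B, or 1b-N with NS3–NS5B plus E1202G/S2204I) by electroporation into IFN-cured Huh7 cells, plated at 7.5×10^3 cells per well in DMEM with 5% FBS. Serial compound dilutions added 4 h post-transfection (0.5% DMSO final).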

[2] = tested on: HCV replicon with a D168V mutation in a 1a-H77 background; experiment: transient replicon assay, D168V mutation in 1a-H77 background; format: cell-based, hepatitis C virus (genotype 1a-H77); details: Hepatitis C virus, read-out: EC50 in a transient replicon assay with a D168V mutation in a 1a-H77 background
Procedure, shortened: as §1

[3] = tested on: HCV replicon with a R155K mutation in a 1a-H77 background; experiment: transient replicon assay, R155K mutation in 1a-H77 background; format: cell-based, hepatitis C virus (genotype 1a-H77); details: Hepatitis C virus, read-out: EC50 in a transient replicon assay with a R155K mutation in a 1a-H77 background
Procedure, shortened: as §1

dog PK experiment = details: in vivo; for bioavailability: dog PK experiment, 3 mg/kg, read-out: F value (bioavailability); for AUC: dog, dosed at 3 mg/kg
Source text: Those of ordinary skill in the art are aware of the biological assays utililized to test the compounds of the invention. Regarding bioavailability data (F values), a more thorough explanation can be found in Rowland, M and Tozer, T Clinical Pharmacokinetics: Concepts and Applications Lippincott, Williams & Wilkins 3rd ed. 1995, (specifically covered on page 43).

Compound	EC50 [1] [nM]	EC50 [2] [nM]	EC50 [3] [nM]	bioavailability (dog PK experiment) [%]	AUC (dog PK experiment) [ng·h/mL]
Cc1cc(C(=O)N[C@H]2CCCCC/C=C\[C@@H]3C[C@@]3(C(=O)NS(=O)(=O)C3CC3)NC(=O)[C@@H]3C[C@@H](Oc4nc5ccccc5nc4C(C)(F)F)CN3C2=O)no1 [Example 2, N-((2R,6S,13aS,14aR,16aS,Z)-14a-(cyclopropylsulfonylcarbamoyl)-2-(3-(1,1-difluoroethyl)quinoxalin-2-yloxy)-5,16-dioxo-1,2,3,5,6,7,8,9,10,11,13a,14,14a,15,16,16a-hexadecahydrocyclopropa[e]pyrrolo[1,2-a][1,4]diazacyclopentadecin-6-yl)-5-methylisoxazole-3-carboxamide]	< 3	25 to 50	< 1	> 100	4500
Cc1cc(C(=O)N[C@H]2CCCCC/C=C\[C@@H]3C[C@@]3(C(=O)NS(=O)(=O)C3CC3)NC(=O)[C@@H]3C[C@@H](Oc4nc5ccccc5nc4C(F)(F)F)CN3C2=O)no1 [Example 10, N-((2R,6S,13aS,14aR,16aS,Z)-14a-(cyclopropylsulfonylcarbamoyl)-5,16-dioxo-2-(3-(trifluoromethyl)quinoxalin-2-yloxy)-1,2,3,5,6,7,8,9,10,11,13a,14,14a,15,16,16a-hexadecahydrocyclopropa[e]pyrrolo[1,2-a][1,4]diazacyclopentadecin-6-yl)-5-methylisoxazole-3-carboxamide]	< 3	25 to 50	< 1	> 100	27000
O=C(N[C@H]1CCCCC/C=C\[C@@H]2C[C@@]2(C(=O)NS(=O)(=O)C2CC2)NC(=O)[C@@H]2C[C@@H](Oc3nc4ccccc4nc3C(F)(F)F)CN2C1=O)c1ccon1 [Example 15, N-((2R,6S,13aS,14aR,16aS,Z)-14a-(cyclopropylsulfonylcarbamoyl)-5,16-dioxo-2-(3-(trifluoromethyl)quinoxalin-2-yloxy)-1,2,3,5,6,7,8,9,10,11,13a,14,14a,15,16,16a-hexadecahydrocyclopropa[e]pyrrolo[1,2-a][1,4]diazacyclopentadecin-6-yl)isoxazole-3-carboxamide]	–	–	–	> 100	3300
Cc1onc(C(=O)N[C@H]2CCCCC/C=C\[C@@H]3C[C@@]3(C(=O)NS(=O)(=O)C3CC3)NC(=O)[C@@H]3C[C@@H](Oc4nc5ccccc5nc4C(F)(F)F)CN3C2=O)c1C [Example 16, N-((2R,6S,13aS,14aR,16aS,Z)-14a-(cyclopropylsulfonylcarbamoyl)-5,16-dioxo-2-(3-(trifluoromethyl)quinoxalin-2-yloxy)-1,2,3,5,6,7,8,9,10,11,13a,14,14a,15,16,16-hexadecahydrocyclopropa[e]pyrrolo[1,2-a][1,4]diazacyclopentadecin-6-yl)-4,5-dimethylisoxazole-3-carboxamide]	< 3	< 25	< 1	66	2100
Cc1cc(C(=O)N[C@H]2CCCCC/C=C\[C@@H]3C[C@@]3(C(=O)NS(=O)(=O)C3CC3)NC(=O)[C@@H]3C[C@@H](Oc4nc5cc(F)ccc5nc4C)CN3C2=O)no1 [Example 22, N-((2R,6S,13aS,14aR,16aS,Z)-14a-(cyclopropylsulfonylcarbamoyl)-2-(7-fluoro-3-methylquinoxalin-2-yloxy)-5,16-dioxo-1,2,3,5,6,7,8,9,10,11,13a,14,14a,15,16,16a-hexadecahydrocyclopropa[e]pyrrolo[1,2-a][1,4]diazacyclopentadecin-6-yl)-5-methylisoxazole-3-carboxamide]	3 to 20	25 to 50	1 to 10	> 100	54000
Cc1cc(C(=O)N[C@H]2CCCCC/C=C\[C@@H]3C[C@@]3(C(=O)NS(=O)(=O)C3(C)CC3)NC(=O)[C@@H]3C[C@@H](Oc4nc5cc(F)ccc5nc4C)CN3C2=O)no1 [Example 23, N-((2R,6S,13aS,14aR,16aS,Z)-2-(7-fluoro-3-methylquinoxalin-2-yloxy)-14a-(1-methylcyclopropylsulfonylcarbamoyl)-5,16-dioxo-1,2,3,5,6,7,8,9,10,11,13a,14,14a,15,16,16a-hexadecahydrocyclopropa[e]pyrrolo[1,2-a][1,4]diazacyclopentadecin-6-yl)-5-methylisoxazole-3-carboxamide]	3 to 20	< 25	1 to 10	86	201000
Cc1cc(C(=O)N[C@H]2CCCCC/C=C\[C@@H]3C[C@@]3(C(=O)NS(=O)(=O)C3CC3)NC(=O)[C@@H]3C[C@@H](Oc4nc5c(F)cccc5nc4C)CN3C2=O)no1 [Example 56, N-((2R,6S,13aS,14aR,16aS,Z)-14a-(cyclopropylsulfonylcarbamoyl)-2-(8-fluoro-3-methylquinoxalin-2-yloxy)-5,16-dioxo-1,2,3,5,6,7,8,9,10,11,13a,14,14a,15,16,16a-hexadecahydrocyclopropa[e]pyrrolo[1,2-a][1,4]diazacyclopentadecin-6-yl)-5-methylisoxazole-3-carboxamide]	20 to 50	50 to 250	1 to 10	> 100	10800
Cc1cc(C(=O)N[C@H]2CCCCC/C=C\[C@@H]3C[C@@]3(C(=O)NS(=O)(=O)C3(C)CC3)NC(=O)[C@@H]3C[C@@H](Oc4nc5cc(F)cc(Br)c5nc4C)CN3C2=O)no1 [Example 101, N-((2R,6S,13aS,14aR,16aS,Z)-2-(5-bromo-7-fluoro-3-methylquinoxalin-2-yloxy)-14a-(1-methylcyclopropylsulfonylcarbamoyl)-5,16-dioxo-1,2,3,5,6,7,8,9,10,11,13a,14,14a,15,16,16a-hexadecahydrocyclopropa[e]pyrrolo[1,2-a][1,4]diazacyclopentadecin-6-yl)-5-methylisoxazole-3-carboxamide]	3 to 20	< 25	< 1	> 100	84000
Cc1cc(C(=O)N[C@H]2CCCCC/C=C\[C@@H]3C[C@@]3(C(=O)NS(=O)(=O)C3CC3)NC(=O)[C@@H]3C[C@@H](Oc4nc5cc(F)ccc5nc4C(F)(F)F)CN3C2=O)no1 [Example 107, N-((2R,6S,13aS,14aR,16aS,Z)-14a-(cyclopropylsulfonylcarbamoyl)-2-(7-fluoro-3-(trifluoromethyl)quinoxalin-2-yloxy)-5,16-dioxo-1,2,3,5,6,7,8,9,10,11,13a,14,14a,15,16,16a-hexadecahydrocyclopropa[e]pyrrolo[1,2-a][1,4]diazacyclopentadecin-6-yl)-5-methylisoxazole-3-carboxamide]	< 3	< 25	< 1	74	54000
Cc1cc(C(=O)N[C@H]2CCCCC/C=C\[C@@H]3C[C@@]3(C(=O)NS(=O)(=O)C3(C)CC3)NC(=O)[C@@H]3C[C@@H](Oc4nc5cc(F)ccc5nc4C(F)(F)F)CN3C2=O)no1 [Example 111, N-((2R,6S,13aS,14aR,16aS,Z)-2-(7-fluoro-3-(trifluoromethyl)quinoxalin-2-yloxy)-14a-(1-methylcyclopropylsulfonylcarbamoyl)-5,16-dioxo-1,2,3,5,6,7,8,9,10,11,13a,14,14a,15,16,16a-hexadecahydrocyclopropa[e]pyrrolo[1,2-a][1,4]diazacyclopentadecin-6-yl)-5-methylisoxazole-3-carboxamide]	< 3	< 25	< 1	88	141000
Cc1cc(C(=O)N[C@H]2CCCCC/C=C\[C@@H]3C[C@@]3(C(=O)NS(=O)(=O)C3CC3)NC(=O)[C@@H]3C[C@@H](Oc4nc5cc(F)ccc5nc4C(C)(F)F)CN3C2=O)no1 [Example 117, N-((2R,6S,13aS,14aR,16aS,Z)-14a-(cyclopropylsulfonylcarbamoyl)-2-(3-(1,1-difluoroethyl)-7-fluoroquinoxalin-2-yloxy)-5,16-dioxo-1,2,3,5,6,7,8,9,10,11,13a,14,14a,15,16,16a-hexadecahydrocyclopropa[e]pyrrolo[1,2-a][1,4]diazacyclopentadecin-6-yl)-5-methylisoxazole-3-carboxamide]	< 3	< 25	< 1	63	63000
CCc1nc2cccc(F)c2nc1O[C@@H]1C[C@H]2C(=O)N[C@]3(C(=O)NS(=O)(=O)C4CC4)C[C@H]3/C=C\CCCCC[C@H](NC(=O)c3noc(C)c3C)C(=O)N2C1 [Example 163, N-((2R,6S,13aS,14aR,16aS,Z)-14a-(cyclopropylsulfonylcarbamoyl)-2-(3-ethyl-8-fluoroquinoxalin-2-yloxy)-5,16-dioxo-1,2,3,5,6,7,8,9,10,11,13a,14,14a,15,16,16a-hexadecahydrocyclopropa[e]pyrrolo[1,2-a][1,4]diazacyclopentadecin-6-yl)-4,5-dimethylisoxazole isoxazole-3-carboxamide]	< 3	25 to 50	< 1	–	–
